This note sets out measurements from article PMC5218480 (PLoS ONE, 2017).

The subject of this experiment is MV-4-11 cells. As to the kind of experiment: Gene expression microarray analysis (Affymetrix PrimeView) and GSEA. As to conditions: ProbeSet 11741123_x_at; LIST D. More on the design: RFU PODN (11730768_x_at) / Fold change /veh PODN (11730768_x_at) / RFU LINC00158 (11744669_a_at) / Fold change /veh LINC00158 (11744669_a_at) / RFU DUSP10 (11751237_a_at) / Fold change /veh DUSP10 (11751237_a_at) / RFU ID3 (11757404_x_at) / Fold change /veh ID3 (11757404_x_at) / RFU PLEKHG5 (11737974_s_at) / Fold change /veh PLEKHG5 (11737974_s_at) / RFU LRRC4B (11730491_at) / Fold change /veh LRRC4B (11730491_at) / RFU GIMAP4 (11747438_a_at) / Fold change /veh GIMAP4 (11747438_a_at) / RFU KRT8 (11758183_x_at) / Fold change /veh KRT8 (11758183_x_at) / RFU CNN1 (11734310_a_at) / Fold change /veh CNN1 (11734310_a_at) / RFU VPS37D (11726825_at) / Fold change /veh VPS37D (11726825_at) / RFU C10orf10 (11716522_x_at) / Fold change /veh C10orf10 (11716522_x_at) / RFU KIR2DL2 /// KIR2DL4 /// KIR2DL5A /// KIR2DL5B /// KIR2DS1 /// KIR2DS2 /// KIR2DS3 /// KIR2DS4 /// KIR3DL3 /// KIR3DL3 /// KIR3DS1 (11738374_at) / Fold change /veh KIR2DL2 /// KIR2DL4 /// KIR2DL5A /// KIR2DL5B /// KIR2DS1 /// KIR2DS2 /// KIR2DS3 /// KIR2DS4 /// KIR3DL3 /// KIR3DL3 /// KIR3DS1 (11738374_at) / RFU C1QL1 (11718748_at) / Fold change /veh C1QL1 (11718748_at) / RFU TMPRSS4 (11747572_a_at) / Fold change /veh TMPRSS4 (11747572_a_at) / RFU HAMP (11756126_x_at) / Fold change /veh HAMP (11756126_x_at) / RFU RNFT2 (11725882_a_at) / Fold change /veh RNFT2 (11725882_a_at) / RFU NR4A2 (11747474_a_at) / Fold change /veh NR4A2 (11747474_a_at) / RFU ABCC12 (11746883_a_at) / Fold change /veh ABCC12 (11746883_a_at) / RFU TMEM136 (11760407_x_at) / Fold change /veh TMEM136 (11760407_x_at) / RFU CLDN22 /// WWC2 (11732394_at) / Fold change /veh CLDN22 /// WWC2 (11732394_at) / RFU HLA-DPB1 (11760878_x_at) / Fold change /veh HLA-DPB1 (11760878_x_at) / RFU SPINT1 (11716480_a_at) / Fold change /veh SPINT1 (11716480_a_at) / RFU GAP43 (11754022_s_at) / Fold change /veh GAP43 (11754022_s_at) / RFU A4GNT (11735810_at) / Fold change /veh A4GNT (11735810_at) / RFU PRB3 (11715151_x_at) / Fold change /veh PRB3 (11715151_x_at) / RFU TUBB4B (11761932_at) / Fold change /veh TUBB4B (11761932_at) / RFU CAPN14 (11732068_a_at) / Fold change /veh CAPN14 (11732068_a_at) / RFU TMCC2 (11721928_a_at) / Fold change /veh TMCC2 (11721928_a_at) / RFU IRGQ (11745062_a_at) / Fold change /veh IRGQ (11745062_a_at) / RFU FAM174B (11720279_a_at) / Fold change /veh FAM174B (11720279_a_at) / RFU TMPRSS4 (11748680_a_at) / Fold change /veh TMPRSS4 (11748680_a_at) / RFU FAM212B (11763350_a_at) / Fold change /veh FAM212B (11763350_a_at) / RFU PLEKHG5 (11743358_a_at) / Fold change /veh PLEKHG5 (11743358_a_at) / RFU ZSCAN30 (11745921_a_at) / Fold change /veh ZSCAN30 (11745921_a_at) / RFU CMKLR1 (11741424_a_at) / Fold change /veh CMKLR1 (11741424_a_at) / RFU LOC101060620 /// MAPK8IP1 (11723275_at) / Fold change /veh LOC101060620 /// MAPK8IP1 (11723275_at) / RFU SPTSSB (11747773_x_at) / Fold change /veh SPTSSB (11747773_x_at) / RFU PRSS12 (11739890_at) / Fold change /veh PRSS12 (11739890_at) / RFU BIN1 (11741810_x_at) / Fold change /veh BIN1 (11741810_x_at) / RFU WNT11 (11732464_a_at) / Fold change /veh WNT11 (11732464_a_at) / RFU C10orf10 (11716521_a_at) / Fold change /veh C10orf10 (11716521_a_at) / RFU C5orf56 (11738089_at) / Fold change /veh C5orf56 (11738089_at) / RFU CYB561 (11721691_x_at) / Fold change /veh CYB561 (11721691_x_at) / RFU ANKRD19P (11752326_a_at) / Fold change /veh ANKRD19P (11752326_a_at) / RFU OR2T12 /// OR2T33 /// OR2T8 (11738714_s_at) / Fold change /veh OR2T12 /// OR2T33 /// OR2T8 (11738714_s_at) / RFU VCAN (11748164_a_at) / Fold change /veh VCAN (11748164_a_at) / RFU JSRP1 (11732532_at) / Fold change /veh JSRP1 (11732532_at) / RFU KRTAP10-11 (11738290_x_at) / Fold change /veh KRTAP10-11 (11738290_x_at) / RFU MYO3A (11730013_a_at) / Fold change /veh MYO3A (11730013_a_at) / RFU EBF3 (11725865_a_at) / Fold change /veh EBF3 (11725865_a_at) / RFU CAMK2N1 (11719241_x_at) / Fold change /veh CAMK2N1 (11719241_x_at) / RFU C5orf56 (11738088_a_at) / Fold change /veh C5orf56 (11738088_a_at) / RFU OLFML3 (11715873_a_at) / Fold change /veh OLFML3 (11715873_a_at) / RFU LOC100653217 /// NTM (11731650_a_at) / Fold change /veh LOC100653217 /// NTM (11731650_a_at) / RFU MAPK11 (11762145_a_at) / Fold change /veh MAPK11 (11762145_a_at) / RFU FIZ1 (11724087_x_at) / Fold change /veh FIZ1 (11724087_x_at) / RFU OASL (11726364_x_at) / Fold change /veh OASL (11726364_x_at) / RFU SOX15 (11748057_x_at) / Fold change /veh SOX15 (11748057_x_at) / RFU CD79A (11719716_a_at) / Fold change /veh CD79A (11719716_a_at) / RFU HIST1H1D (11736915_at) / Fold change /veh HIST1H1D (11736915_at) / RFU CASKIN2 (11723855_a_at) / Fold change /veh CASKIN2 (11723855_a_at) / RFU LOC730098 (11760151_x_at) / Fold change /veh LOC730098 (11760151_x_at) / RFU OR4N2 (11742367_at) / Fold change /veh OR4N2 (11742367_at) / RFU PRRT2 (11749266_a_at) / Fold change /veh PRRT2 (11749266_a_at) / RFU SNX32 (11753110_a_at) / Fold change /veh SNX32 (11753110_a_at) / RFU CDHR5 (11726645_a_at) / Fold change /veh CDHR5 (11726645_a_at) / RFU RCAN1 (11760418_a_at) / Fold change /veh RCAN1 (11760418_a_at) / RFU FAM167A (11723789_a_at) / Fold change /veh FAM167A (11723789_a_at) / RFU FAM26E (11764081_at) / Fold change /veh FAM26E (11764081_at) / RFU ISYNA1 (11749810_s_at) / Fold change /veh ISYNA1 (11749810_s_at) / RFU ACY1 (11761880_at) / Fold change /veh ACY1 (11761880_at) / RFU 11764098_at / Fold change /veh 11764098_at / RFU SAMD14 (11745864_x_at) / Fold change /veh SAMD14 (11745864_x_at) / RFU NPB (11741838_a_at) / Fold change /veh NPB (11741838_a_at) / RFU TMPRSS6 (11731388_a_at) / Fold change /veh TMPRSS6 (11731388_a_at) / RFU KRTAP10-2 (11738614_at) / Fold change /veh KRTAP10-2 (11738614_at) / RFU ARHGAP8 /// PRR5-ARHGAP8 (11727945_x_at) / Fold change /veh ARHGAP8 /// PRR5-ARHGAP8 (11727945_x_at) / RFU KRTAP5-7 /// NADSYN1 (11734609_at) / Fold change /veh KRTAP5-7 /// NADSYN1 (11734609_at) / RFU RASL12 (11751679_a_at) / Fold change /veh RASL12 (11751679_a_at) / RFU CDKN2B (11736163_a_at) / Fold change /veh CDKN2B (11736163_a_at) / RFU PRF1 (11729649_at) / Fold change /veh PRF1 (11729649_at) / RFU, ZNF638 /// ZNF638-IT1 / Fold change vs veh, ZNF638 /// ZNF638-IT1 / RFU, PANK3 / Fold change vs veh, PANK3 / RFU, SH3YL1 / Fold change vs veh, SH3YL1 / RFU, ZEB2 / Fold change vs veh, ZEB2 / RFU, NRIP1 / Fold change vs veh, NRIP1 / RFU, PTTG1IP / Fold change vs veh, PTTG1IP / RFU, CAPN2 / Fold change vs veh, CAPN2 / RFU, MED14 / Fold change vs veh, MED14 / RFU, SNORA58 / Fold change vs veh, SNORA58 / RFU, C1orf63 / Fold change vs veh, C1orf63 / RFU, LRRFIP1 / Fold change vs veh, LRRFIP1 / RFU, NDUFAF7 / Fold change vs veh, NDUFAF7 / RFU, SLC12A2 / Fold change vs veh, SLC12A2 / RFU, IBTK / Fold change vs veh, IBTK / RFU, ESF1 / Fold change vs veh, ESF1 / Fold change vs veh, TMEM50B / RFU, TAOK1 / Fold change vs veh, TAOK1 / RFU, ACBD3 / Fold change vs veh, ACBD3 / RFU, TMA16 / Fold change vs veh, TMA16 / RFU, RWDD3 / Fold change vs veh, RWDD3 / RFU, BCAT1 / Fold change vs veh, BCAT1 / RFU, EDEM3 / Fold change vs veh, EDEM3 / RFU, TMEM33 / Fold change vs veh, TMEM33 / RFU, WDR75 / Fold change vs veh, WDR75 / RFU, AHCTF1 / Fold change vs veh, AHCTF1 / RFU, TFRC / Fold change vs veh, TFRC / RFU, ZDHHC17 / Fold change vs veh, ZDHHC17 / RFU, NOM1 / Fold change vs veh, NOM1 / RFU, ARL8B / Fold change vs veh, ARL8B / RFU, ZBTB11 / Fold change vs veh, ZBTB11 / RFU, TAMM41 / Fold change vs veh, TAMM41 / RFU, KIAA1704 /// LOC100996395 / Fold change vs veh, KIAA1704 /// LOC100996395 / RFU, ING1 / Fold change vs veh, ING1 / RFU, TRMT61B / Fold change vs veh, TRMT61B / RFU, FUBP3 / Fold change vs veh, FUBP3 / RFU, TP53 / Fold change vs veh, TP53 / RFU, TNKS2 / Fold change vs veh, TNKS2 / RFU, ZFP14 / Fold change vs veh, ZFP14 / RFU, ACTR2 / Fold change vs veh, ACTR2 / RFU, PPP3R1 / Fold change vs veh, PPP3R1 / RFU, PIK3R1 / Fold change vs veh, PIK3R1 / RFU, HNRNPA1 / Fold change vs veh, HNRNPA1 / RFU, RNF170 / Fold change vs veh, RNF170 / RFU, ZNF28 / Fold change vs veh, ZNF28 / RFU, RNGTT / Fold change vs veh, RNGTT / RFU, OGT / Fold change vs veh, OGT / RFU, BRD1 / Fold change vs veh, BRD1 / RFU, MARS / Fold change vs veh, MARS / RFU, ZNF655 / Fold change vs veh, ZNF655 / RFU, FAHD1 / Fold change vs veh, FAHD1 / RFU, BDP1 / Fold change vs veh, BDP1 / RFU, LRRCC1 / Fold change vs veh, LRRCC1 / RFU, ARID1A / Fold change vs veh, ARID1A / RFU, ZNF146 / Fold change vs veh, ZNF146 / RFU, ZNF330 / Fold change vs veh, ZNF330 / RFU, GPN3 / Fold change vs veh, GPN3 / RFU, C9orf123 / Fold change vs veh, C9orf123 / RFU, N4BP2L2 / Fold change vs veh, N4BP2L2 / RFU, ARFIP1 / Fold change vs veh, ARFIP1 / RFU, FAM179B / Fold change vs veh, FAM179B / RFU, BCL10 / Fold change vs veh, BCL10 / RFU, UHRF1BP1L / Fold change vs veh, UHRF1BP1L / RFU, BET1 / Fold change vs veh, BET1 / RFU, CNOT2 / Fold change vs veh, CNOT2 / RFU, ZNF268 / Fold change vs veh, ZNF268 / Fold change vs veh, ZNF507 / RFU, DGCR2 / Fold change vs veh, DGCR2 / RFU, WDSUB1 / Fold change vs veh, WDSUB1 / Fold change vs veh, HSP90B1 /// MIR3652 / RFU, ADSS / Fold change vs veh, ADSS / RFU, GK / Fold change vs veh, GK / RFU, ZNF148 / Fold change vs veh, ZNF148 / RFU, TAF9 / Fold change vs veh, TAF9 / RFU, SLC1A5 / Fold change vs veh, SLC1A5 / RFU, SLMO2 / Fold change vs veh, SLMO2 / RFU, ABCC4 / Fold change vs veh, ABCC4 / RFU, LOC101060439 /// RAP1B / Fold change vs veh, LOC101060439 /// RAP1B / RFU, RFX7 / Fold change vs veh, RFX7 / RFU, GTPBP10 / Fold change vs veh, GTPBP10 / RFU, CNEP1R1 / Fold change vs veh, CNEP1R1 / RFU, BIVM-ERCC5 /// ERCC5 / Fold change vs veh, BIVM-ERCC5 /// ERCC5 / RFU, ILF3 / Fold change vs veh, ILF3 / RFU 11762660_at / Fold change /veh 11762660_at / RFU VCAN (11757783_s_at) / Fold change /veh VCAN (11757783_s_at) / RFU DDX43 (11728927_at) / Fold change /veh DDX43 (11728927_at) / RFU KRT8 (11758188_x_at) / Fold change /veh KRT8 (11758188_x_at) / RFU NKD1 (11759106_at) / Fold change /veh NKD1 (11759106_at) / RFU SRD5A1 (11742802_a_at) / Fold change /veh SRD5A1 (11742802_a_at) / RFU TPSAB1 /// TPSB2 (11721975_s_at) / Fold change /veh TPSAB1 /// TPSB2 (11721975_s_at) / RFU GSTM3 (11746129_a_at) / Fold change /veh GSTM3 (11746129_a_at) / RFU IL23R (11737362_x_at) / Fold change /veh IL23R (11737362_x_at) / RFU TMEM51 (11727254_a_at) / Fold change /veh TMEM51 (11727254_a_at) / RFU PIWIL2 (11732686_x_at) / Fold change /veh PIWIL2 (11732686_x_at) / RFU ORM1 (11744905_x_at) / Fold change /veh ORM1 (11744905_x_at) / RFU CCDC152 (11743942_at) / Fold change /veh CCDC152 (11743942_at) / RFU ECM1 (11717891_a_at) / Fold change /veh ECM1 (11717891_a_at) / RFU IL23R (11748794_a_at) / Fold change /veh IL23R (11748794_a_at) / RFU TNFAIP8L3 (11732012_x_at) / Fold change /veh TNFAIP8L3 (11732012_x_at) / RFU MBOAT4 (11741988_at) / Fold change /veh MBOAT4 (11741988_at) / RFU 11764193_at / Fold change /veh 11764193_at / RFU TMEM53 (11763286_at) / Fold change /veh TMEM53 (11763286_at) / RFU MAGEB2 (11727129_at) / Fold change /veh MAGEB2 (11727129_at) / RFU TMEM200A (11744735_a_at) / Fold change /veh TMEM200A (11744735_a_at) / RFU CCDC152 (11751479_a_at) / Fold change /veh CCDC152 (11751479_a_at) / RFU FAM211A (11726209_a_at) / Fold change /veh FAM211A (11726209_a_at) / RFU RGS16 (11746705_a_at) / Fold change /veh RGS16 (11746705_a_at) / RFU VCAN (11755009_s_at) / Fold change /veh VCAN (11755009_s_at) / RFU RHOB (11743442_s_at) / Fold change /veh RHOB (11743442_s_at) / RFU RGS16 (11720943_a_at) / Fold change /veh RGS16 (11720943_a_at) / RFU RGS16 (11720944_at) / Fold change /veh RGS16 (11720944_at) / RFU, VPS4B / Fold change vs veh, VPS4B / RFU, CREB1 / Fold change vs veh, CREB1 / RFU, DNAJC13 / Fold change vs veh, DNAJC13 / RFU, GNAQ / Fold change vs veh, GNAQ / RFU, CDK5R1 / Fold change vs veh, CDK5R1 / RFU, ZRANB3 / Fold change vs veh, ZRANB3 / RFU, CUL4A / Fold change vs veh, CUL4A / RFU, CCNY / Fold change vs veh, CCNY / RFU, UFL1 / Fold change vs veh, UFL1 / RFU, COG3 / Fold change vs veh, COG3 / RFU, DIAPH2 / Fold change vs veh, DIAPH2 / RFU, SKA2 / Fold change vs veh, SKA2 / RFU, AFF3 / Fold change vs veh, AFF3 / RFU, LMF1 / Fold change vs veh, LMF1 / RFU, IPO11 / Fold change vs veh, IPO11 / RFU, DFFB / Fold change vs veh, DFFB / RFU, FOXP1 / Fold change vs veh, FOXP1 / RFU, CARD8 / Fold change vs veh, CARD8 / RFU, STRN3 / Fold change vs veh, STRN3 / RFU, ADK / Fold change vs veh, ADK / RFU, RASSF2 / Fold change vs veh, RASSF2 / RFU, WIPF1 / Fold change vs veh, WIPF1 / RFU, LARP1B / Fold change vs veh, LARP1B / RFU, RASA1 / Fold change vs veh, RASA1 / RFU, RB1 / Fold change vs veh, RB1 / RFU, PPFIA1 / Fold change vs veh, PPFIA1 / RFU, MAT2A / Fold change vs veh, MAT2A / RFU, CCT5 / Fold change vs veh, CCT5 / RFU, WDR92 / Fold change vs veh, WDR92 / RFU, CUX1 / Fold change vs veh, CUX1 / RFU, TTC7A / Fold change vs veh, TTC7A / RFU, TMEM135 / Fold change vs veh, TMEM135 / RFU, DEPTOR / Fold change vs veh, DEPTOR / RFU, CPM / Fold change vs veh, CPM / RFU, DNAJB6 / Fold change vs veh, DNAJB6 / RFU, CACNA2D3 / Fold change vs veh, CACNA2D3 / RFU, DTX4 / Fold change vs veh, DTX4 / RFU, TFCP2 / Fold change vs veh, TFCP2 / RFU, GMCL1 /// GMCL1P1 / Fold change vs veh, GMCL1 /// GMCL1P1 / RFU, AEBP2 / Fold change vs veh, AEBP2 / RFU, SNHG1 /// SNORD22 /// SNORD25 /// SNORD26 /// SNORD27 /// SNORD28 /// SNORD29 /// SNORD31 / Fold change vs veh, SNHG1 /// SNORD22 /// SNORD25 /// SNORD26 /// SNORD27 /// SNORD28 /// SNORD29 /// SNORD31 / Fold change (Aza/veh), C12orf56 (ProbeSet 11735607_a_at) / Fold change (ACY-1035/veh), C12orf56 (ProbeSet 11735607_a_at) / Fold change (Aza/veh), FGFR1OP (ProbeSet 11751329_s_at) / Fold change (ACY-1035/veh), FGFR1OP (ProbeSet 11751329_s_at) / Fold change (Aza/veh), VPS36 (ProbeSet 11739960_a_at) / Fold change (ACY-1035/veh), VPS36 (ProbeSet 11739960_a_at) / RFU SYPL1 (11715823_x_at) / Fold change /veh SYPL1 (11715823_x_at) / RFU IGFBP7 (11715501_s_at) / Fold change /veh IGFBP7 (11715501_s_at) / RFU REEP3 (11722064_at) / Fold change /veh REEP3 (11722064_at) / RFU IGLL1 (11728026_x_at) / Fold change /veh IGLL1 (11728026_x_at): dose or concentration left out as unconfirmed. Format: cell-based, human.

For the compound `Nc1ccc(-c2cccs2)cc1NC(=O)c1ccc2c(c1)cc(C1CC1)n2CCN1CCOCC1` [ACY-1035], the “Fold change vs veh, ADK” value stood at 0.96.
